{
  "source": "patent US20250009713A1",
  "about": "(priority 2021, published 2025)",
  "type_in_all_cases": "cell-based",
  "key": {"[1]": {"system": "SARS-COV-2 US-PHC658/2021 (delta variant; NR-55611)", "test": "microbe, parasite or virus in culture", "conditions": "Plaque, Vero, virus Delta"}, "[2]": {"system": "SARS-COV-2 England/204820464/2020 (alpha variant; NR-54000)", "test": "microbe, parasite or virus in culture", "conditions": "Plaque, Calu-3, virus UK"}, "[3]": {"system": "SARS-COV-2 US-PHC658/2021 (delta variant; NR-55611)", "test": "microbe, parasite or virus in culture", "conditions": "PCR, Vero, virus Delta"}, "[4]": {"system": "SARS-COV-2 USA/MD-HP20874/2021 (omicron variant; NR-56461)", "test": "microbe, parasite or virus in culture", "conditions": "Plaque, Calu-3, virus Omicron"}, "[5]": {"system": "SARS-COV-2 SouthAfrica/KRISP-K005325/2020 (beta variant; NR-54009)", "test": "microbe, parasite or virus in culture", "conditions": "Plaque, Vero, virus SA"}, "[6]": {"system": "SARS-COV-2 England/204820464/2020 (alpha variant; NR-54000)", "test": "microbe, parasite or virus in culture"}, "[7]": {"system": "SARS-COV-2 SouthAfrica/KRISP-K005325/2020 (beta variant; NR-54009)", "test": "microbe, parasite or virus in culture"}, "[8]": {"system": "SARS-COV-2 USA/MD-HP20874/2021 (omicron variant; NR-56461)", "test": "microbe, parasite or virus in culture", "conditions": "PCR, Calu-3, virus Omicron"}, "[9]": {"system": "SARS-COV-2 SouthAfrica/KRISP-K005325/2020 (beta variant; NR-54009)", "test": "microbe, parasite or virus in culture", "conditions": "PCR, Calu-3, virus SA"}, "[10]": {"system": "SARS-COV-2 strain US (US-WA1/2020)", "test": "plaque assay, strain US, summary over cell types", "conditions": "Severe acute respiratory syndrome coronavirus 2, two-way ANOVA estimate"}, "[11]": {"system": "SARS-COV-2 SouthAfrica/KRISP-K005325/2020 (beta variant; NR-54009)", "test": "microbe, parasite or virus in culture", "conditions": "Plaque, Calu-3, virus SA"}, "[12]": {"system": "SARS-COV-2 US-PHC658/2021 (delta variant; NR-55611)", "test": "microbe, parasite or virus in culture", "conditions": "Plaque, Calu-3, virus Delta"}, "[13]": {"system": "SARS-COV-2 USA/MD-HP20874/2021 (omicron variant; NR-56461)", "test": "microbe, parasite or virus in culture", "conditions": "Plaque, Vero, virus Omicron"}, "[14]": {"system": "SARS-COV-2 USA/MD-HP20874/2021 (omicron variant; NR-56461)", "test": "microbe, parasite or virus in culture", "conditions": "PCR, Vero, virus Omicron"}, "[15]": {"system": "SARS-COV-2 England/204820464/2020 (alpha variant; NR-54000)", "test": "microbe, parasite or virus in culture", "conditions": "Plaque, Vero, virus UK"}, "[16]": {"system": "SARS-COV-2 England/204820464/2020 (alpha variant; NR-54000)", "test": "microbe, parasite or virus in culture", "conditions": "PCR, Calu-3, virus UK"}, "[17]": {"system": "SARS-COV-2 US-PHC658/2021 (delta variant; NR-55611)", "test": "microbe, parasite or virus in culture", "conditions": "PCR, Calu-3, virus Delta"}, "[18]": {"conditions": "Severe acute respiratory syndrome coronavirus 2, m.o.i 0.1, […]"}, "[19]": {"conditions": "PCR, Vero, virus UK, log-logistic curve fit"}, "[20]": {"conditions": "Severe acute respiratory syndrome coronavirus 2, Vero"}, "[21]": {"conditions": "PCR, Vero, virus SA, log-logistic curve fit"}},
  "data": [
    {"smiles": "Cn1cc(-c2cccc3cc(C(=O)NC(=N)N)ccc23)cn1", "note": "[BIT225, N-carbamimidoyl-5-(1-methyl-1H-pyrazol-4-yl)-2-naphthamide]", "values": [
      {"measurement": "Max. Response (d)", "setting": "[1]; log-logistic curve fit", "value": 6.45, "unit": "log10"},
      {"measurement": "Slope (b)", "setting": "[1]; log-logistic curve fit", "value": 1.48, "unit": "nmol⁻¹"},
      {"measurement": "EC50", "setting": "[1]; [18]", "value": 6.65, "unit": "µM"},
      {"measurement": "Max. Response (d)", "setting": "[2]; log-logistic curve fit", "value": 3.43, "unit": "log10"},
      {"measurement": "Slope (b)", "setting": "[2]; log-logistic curve fit", "value": 1.15, "unit": "nmol⁻¹"},
      {"measurement": "EC50", "setting": "[2]; [18]", "value": 5.72, "unit": "µM"},
      {"measurement": "Max. Response (d)", "setting": "[3]; log-logistic curve fit", "value": 3.55, "unit": "log10"},
      {"measurement": "Slope (b)", "setting": "[3]; log-logistic curve fit", "value": 1.15, "unit": "nmol⁻¹"},
      {"measurement": "EC50", "setting": "[3]; [18]", "value": 3.59, "unit": "µM"},
      {"measurement": "Max. Response (d)", "setting": "[4]; log-logistic curve fit", "value": 3.42, "unit": "log10"},
      {"measurement": "Slope (b)", "setting": "[4]; log-logistic curve fit", "value": 1.11, "unit": "nmol⁻¹"},
      {"measurement": "EC50", "setting": "[4]; [18]", "value": 7.61, "unit": "µM"},
      {"measurement": "Slope (b)", "setting": "[5]; log-logistic curve fit", "value": 1.50, "unit": "nmol⁻¹"},
      {"measurement": "EC50", "setting": "[5]; [18]", "value": 7.26, "unit": "µM"},
      {"measurement": "Max. Response (d)", "setting": "[6]; [19]", "value": 3.58, "unit": "log10"},
      {"measurement": "Slope (b)", "setting": "[6]; [19]", "value": 1.07, "unit": "nmol⁻¹"},
      {"measurement": "EC50", "setting": "[6]; [20]", "value": 4.56, "unit": "µM"},
      {"measurement": "Max. Response (d)", "setting": "[7]; [21]", "value": 3.52, "unit": "log10"},
      {"measurement": "Slope (b)", "setting": "[7]; [21]", "value": 1.28, "unit": "nmol⁻¹"},
      {"measurement": "EC50", "setting": "[7]; [20]", "value": 2.65, "unit": "µM"},
      {"measurement": "Max. Response (d)", "setting": "[8]; log-logistic curve fit", "value": 2.57, "unit": "log10"},
      {"measurement": "Slope (b)", "setting": "[8]; log-logistic curve fit", "value": 1.08, "unit": "nmol⁻¹"},
      {"measurement": "EC50", "setting": "[8]; [18]", "value": 4.37, "unit": "µM"},
      {"measurement": "Max. Response (d)", "setting": "[9]; log-logistic curve fit", "value": 2.67, "unit": "log10"},
      {"measurement": "Slope (b)", "setting": "[9]; log-logistic curve fit", "value": 1.07, "unit": "nmol⁻¹"},
      {"measurement": "EC50", "setting": "[9]; [18]", "value": 4.17, "unit": "µM"},
      {"measurement": "EC50", "setting": "[10]", "value": 3.8, "unit": "µM"},
      {"measurement": "Max. Response (d)", "setting": "[11]; log-logistic curve fit", "value": 3.52, "unit": "log10"},
      {"measurement": "Slope (b)", "setting": "[11]; log-logistic curve fit", "value": 1.34, "unit": "nmol⁻¹"},
      {"measurement": "EC50", "setting": "[11]; [18]", "value": 6.79, "unit": "µM"},
      {"measurement": "Max. Response (d)", "setting": "[12]; log-logistic curve fit", "value": 3.44, "unit": "log10"},
      {"measurement": "Slope (b)", "setting": "[12]; log-logistic curve fit", "value": 1.00, "unit": "nmol⁻¹"},
      {"measurement": "EC50", "setting": "[12]; [18]", "value": 7.9, "unit": "µM"},
      {"measurement": "Max. Response (d)", "setting": "[13]; log-logistic curve fit", "value": 6.31, "unit": "log10"},
      {"measurement": "Slope (b)", "setting": "[13]; log-logistic curve fit", "value": 1.41, "unit": "nmol⁻¹"},
      {"measurement": "EC50", "setting": "[13]; [18]", "value": 6.5, "unit": "µM"},
      {"measurement": "Max. Response (d)", "setting": "[14]; log-logistic curve fit", "value": 3.51, "unit": "log10"},
      {"measurement": "Slope (b)", "setting": "[14]; log-logistic curve fit", "value": 1.22, "unit": "nmol⁻¹"},
      {"measurement": "EC50", "setting": "[14]; [18]", "value": 3.37, "unit": "µM"},
      {"measurement": "Max. Response (d)", "setting": "[15]; log-logistic curve fit", "value": 6.41, "unit": "log10"},
      {"measurement": "EC50", "setting": "[15]; [18]", "value": 6.7, "unit": "µM"},
      {"measurement": "Max. Response (d)", "setting": "[16]; log-logistic curve fit", "value": 2.58, "unit": "log10"},
      {"measurement": "Slope (b)", "setting": "[16]; log-logistic curve fit", "value": 1.21, "unit": "nmol⁻¹"},
      {"measurement": "EC50", "setting": "[16]; [18]", "value": 2.86, "unit": "µM"},
      {"measurement": "Max. Response (d)", "setting": "[17]; log-logistic curve fit", "value": 2.56, "unit": "log10"},
      {"measurement": "Slope (b)", "setting": "[17]; log-logistic curve fit", "value": 1.08, "unit": "nmol⁻¹"},
      {"measurement": "EC50", "setting": "[17]; [18]", "value": 4.81, "unit": "µM"}
    ]}
  ]
}
